From PubChem BioAssay (NCI)
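Values below derive from 48-hour exposures of cells grown in 96-well plates, with endpoints linearly interpolated between the two concentrations bracketing the appropriate inhibition level. GI50 is the concentration that inhibits growth by half. TGI: total growth inhibition.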

Assays:
Assay in all cases: inhibition of tumour cell growth, NCI panel, 48 h
[1] = test system: RXF 393 renal
[2] = test system: ACHN renal
[3] = test system: NCI-H522 lung
[4] = test system: NCI-H23 lung
[5] = test system: OVCAR-3 ovarian
[6] = test system: SW-620 colon
[7] = test system: A498 renal
[8] = test system: NCI-H226 lung
[9] = test system: 786-0 renal
[10] = test system: IGROV1 ovarian

SMILES	GI50 [1]	TGI [1]	GI50 [2]	TGI [2]	GI50 [3]	TGI [3]	GI50 [4]	TGI [4]	GI50 [5]	TGI [5]	GI50 [6]	TGI [6]	GI50 [7]	TGI [7]	GI50 [8]	TGI [8]	GI50 [9]	TGI [9]	GI50 [10]	TGI [10]
CC([C@H]1CCC2C3CCC4C(=O)C(NC=O)=CC[C@]4(C)C3CC[C@@]21C)N(C)C (stereo partly drawn)	4.66 µM	16.6 µM	4.86 µM	17.2 µM	8.2 µM	> 31.2 µM	4.42 µM	18.7 µM	2.7 µM	10.2 µM	2.13 µM	5.54 µM	3.83 µM	12.5 µM	4.72 µM	19.4 µM	2.48 µM	7.76 µM	2.29 µM	
COC(=O)c1nc(N)[nH]c(=O)c1-c1ccc(Cl)cc1		> 100 µM		> 100 µM		> 100 µM		> 100 µM		> 100 µM		> 100 µM		> 100 µM		> 100 µM		> 100 µM		> 100 µM
COc1ccc2c(c1)Cc1cc(N=[N+]([O-])c3ccc4c(c3)Cc3cc(OC)ccc3-4)ccc1-2		> 100 µM		> 100 µM		30.3 µM		> 100 µM		> 100 µM		> 100 µM		95 µM		> 100 µM		> 100 µM		55.2 µM
O=C1/C(=C/c2ccc(F)cc2)CN(Cc2cn(CCNc3ccnc4cc(Cl)ccc34)nn2)C/C1=C\c1ccc(F)cc1	1.66 µM	3.11 µM	1.68 µM	3.04 µM	1.67 µM	3.16 µM	1.84 µM	4.01 µM	1.24 µM	2.5 µM	0.366 µM	1.39 µM	1.11 µM	2.35 µM	1.91 µM	4.24 µM	1.66 µM	3.04 µM	1.5 µM	2.93 µM
Cc1c(Br)cccc1NC(=O)c1sc2nc3c(cc2c1N)CN(Cc1ccccc1)CC3	0.123 µM	0.402 µM	0.444 µM	40 µM	0.108 µM	> 50 µM	0.343 µM	> 50 µM	0.157 µM	0.773 µM	0.164 µM	7.15 µM	0.186 µM	3.89 µM	1.18 µM	18.9 µM	0.256 µM	7.98 µM	0.47 µM	> 50 µM
COc1ccc(NC(=O)CC(=O)n2nc(-c3ccccc3)c(N=Nc3ccc(C)cc3)c2-c2ccccc2)cc1		46.4 µM		60.9 µM		48.3 µM		54 µM		77.2 µM		> 100 µM		> 76.5 µM		58.3 µM		45.6 µM		49.9 µM
COc1cc(C2CC(c3ccc(C)cc3)=NN2C(C)=O)ccc1Oc1ccnc2cc(Cl)ccc12 (stereo not drawn)	3.57 µM	> 100 µM	2.76 µM	> 100 µM	> 100 µM	> 100 µM	2.71 µM	> 100 µM	> 100 µM	> 100 µM	> 100 µM	> 100 µM	13.1 µM	78 µM	5.38 µM	> 100 µM	1.17 µM	10.4 µM	38.2 µM	> 100 µM
COC(=O)C1=C(O)C(C(=O)OC)[C@@]2(O)[C@@H](C(=O)OC)C(c3ccccc3C(F)(F)F)C[C@@H]1[C@@H]2C(=O)OC (stereo partly drawn)	3.11 µM	7.65 µM	1.61 µM	3.05 µM	16.8 µM	33.2 µM	3.44 µM	11.6 µM	1.69 µM	4.14 µM	4.02 µM	20.1 µM	3.05 µM	7.62 µM			4.49 µM	16.4 µM		
S=c1sc2ccccc2n1CN1CCN(Cc2ccccc2)CC1		> 100 µM		> 100 µM		> 100 µM		> 100 µM		> 100 µM		> 100 µM		> 100 µM		> 100 µM		> 100 µM		> 100 µM
CC(=O)c1c[nH]c2ccc(-c3ccnc(Nc4ccc(NC(=O)c5cccc(F)c5)c(CN5CCOCC5)c4)n3)cc12	0.0221 µM	0.054 µM	0.0845 µM	3.1 µM	0.234 µM	1.61 µM	0.195 µM	1.09 µM	0.0955 µM	0.932 µM	0.206 µM	4.82 µM	0.102 µM	0.38 µM	0.148 µM	1.76 µM	0.157 µM	> 26.2 µM	0.151 µM	1.69 µM
N#CC1=C(N)Oc2c(sc3c(F)cccc23)C1c1ccc(Cl)cc1 (stereo not drawn)	1.92 µM	6 µM	4.62 µM	19.3 µM	1.93 µM	11.7 µM	3.37 µM	16.2 µM	2.6 µM	7.44 µM	3.47 µM	16.3 µM	2.57 µM	11.2 µM	12.7 µM	34.8 µM	3.15 µM	11.1 µM	3.43 µM	17.1 µM
COc1ccc(CNCCN2C(=O)c3ccc4c5c(ccc(c35)C2=O)C(=O)N(CCNCc2ccc(OC)cc2)C4=O)cc1	0.225 µM	0.981 µM	0.312 µM	1.56 µM	0.413 µM	1.92 µM	0.206 µM	0.494 µM	0.159 µM	0.573 µM	0.168 µM	0.506 µM	0.647 µM	2.02 µM	0.637 µM	2.28 µM	1.17 µM	2.49 µM	0.204 µM	0.67 µM
C=C1c2c(C)nn(-c3ccccc3)c2N(C)C23C[C@@H]1C1(C)c4c(C)nn(-c5ccccc5)c4N(C)C(C)(C[C@H]12)C3 (stereo partly drawn)	2.04 µM	6.39 µM	4.78 µM	> 100 µM	2.12 µM	7.73 µM	7.99 µM	> 100 µM	4.58 µM	> 100 µM			4.28 µM	45.9 µM	15.3 µM	> 100 µM	11.8 µM	69.4 µM	11.9 µM	> 100 µM
